Measured values reported in PMC8162404, “Proteomimetic surface fragments distinguish targets by function” (Chemical Science, 2020).
Where two headings read alike, the source gives them in different places.

What was measured:
CaM [1] = target: T1, CaM (Bos taurus, UniProt P62157); assay: Pull-down assay with immobilized protein and LSM libraries; format: binding, bovine; conditions: H14 library; 1:2 stoichiometry assumed; read-out: Surface mapping KD (apparent)
T1 construct: made in house; host or cells: E. coli BL21 (DE3)
Procedure, shortened: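 His-tagged protein immobilized on Co-NTA resin, equilibrated 30 min at room temperature with LSM sublibraries (64 members, […]), equimolar protein to total probe. CaM buffer: 20 mM HEPES pH 7.4, 150 mM NaCl, 5 mM CaCl2. Bound fractions from HPLC-MS loss of unbound probe versus protein-free resin control; Kd derived.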

S100B [2] = target: T2, S100B (Homo sapiens, UniProt P04271); assay: Competition pull-down with native ligand RSK1 (689–735); format: binding; conditions: H14 library; competitor peptide 200 µM; read-out: Surface mapping KD (apparent), competition
T2 construct: made in house; host or cells: Escherichia coli BL21(DE3)
T2 sequence (P04271 1-92): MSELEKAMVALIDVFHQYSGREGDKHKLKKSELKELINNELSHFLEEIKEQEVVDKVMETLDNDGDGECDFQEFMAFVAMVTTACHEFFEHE

CaM [3] = target: T1, CaM; assay: Competition pull-down with native ligand TRPV1-Ct15; format: binding, bovine; conditions: H14 library; competitor peptide 200 µM; read-out: Surface mapping KD (apparent), competition
RecQ-WH [4] = target: T3, RecQ-WH (Escherichia coli, UniProt P15043); assay: Competition pull-down with native ligand SSB-Ct8; format: binding, E. coli; conditions: H14 library; competitor peptide 200 µM; read-out: Surface mapping KD (apparent), competition
T3 construct: coding for residues 408– 523 of E. coli RecQ; made in house; host or cells: E. coli BL21(DE3)

RecQ-WH [5] = target: T3, RecQ-WH; assay: Pull-down assay with immobilized protein and LSM libraries; parameters: species or system E. coli; conditions: H14 library; 1:1 binding assumed; read-out: Surface mapping KD (apparent)
Procedure, shortened: (§1)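 His-tagged protein immobilized on Co-NTA resin (64 µM) in 20 mM HEPES pH 7.4, 150 mM NaCl, equilibrated 30 min at room temperature with foldamer LSM sublibraries at equimolar total concentration. Unbound fractions quantified by HPLC-MS versus protein-free resin control; apparent KD assumes 1:1 binding.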

Gal-1 [6] = target: T4, Gal-1 (Homo sapiens, UniProt P09382); assay: Competition pull-down with lactose; format: binding; conditions: H14 library; lactose 10 mM; read-out: Surface mapping KD (apparent), competition
T4 construct: made in house; host or cells: E. coli BL21(DE3)
Procedure, shortened: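 His6-tagged proteins immobilized on Co-NTA resin at 64 µM final with 64-member LSM foldamer sublibraries (1 M each, as printed) in pH 7.4 HEPES/NaCl buffers (Ca2+/TCEP per target), 30 min RT; competitor peptides 200 µM final, lactose 10 mM for Gal-1. Bound fractions from LC-MS loss vs protein-free resin; KD assuming 1:1 binding.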

S100A4 [7] = target: T5, S100A4 (Homo sapiens, UniProt P26447); assay: Competition pull-down with native ligand NMIIA (1893–1923); format: binding; conditions: H14 library; competitor peptide 200 µM; read-out: Surface mapping KD (apparent), competition
T5 construct: made in house; host or cells: Escherichia coli BL21(DE3)

S100A4 [8] = target: T5, S100A4; assay: Pull-down assay with immobilized protein and LSM libraries; format: binding; conditions: for Kd: H14 library, 1:1 binding assumed, read-out: Surface mapping KD (apparent); for Affinity class of probe (high, medium, low) in pull-down: H14 probes selected for validation
Procedure, shortened: (§2)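 Buffers were HEPES pH 7.4 with 150 mM NaCl, plus 1 mM TCEP and 1 mM CaCl2 (50 mM HEPES) for S100A4 and S100B, 1 mM TCEP for Gal-1, and no additive for RecQ-WH. Immobilized protein at 64 µM was equilibrated 30 min with the LSM sublibrary, and unbound probes were measured by LC-MS.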

S100B [9] = target: T2, S100B; assay: as above; format: binding; conditions: for Kd: H14 library, 1:1 binding assumed, read-out: Surface mapping KD (apparent); for Affinity class of probe (high, medium, low) in pull-down: H14 probes selected for validation
Procedure, shortened: as §2

Gal-1 [10] = target: T4, Gal-1; assay: as above; format: binding; conditions: H14 library; 1:1 binding assumed; read-out: Surface mapping KD (apparent)
Procedure, shortened: as §1

S100A4 [11] = target: T5, S100A4; parameters: method as in PMID 26527685; conditions: native ligand used as competitor; cited from earlier work
S100B [12] = target: T2, S100B; parameters: method as in PMID 26527685; conditions: native ligand used as competitor; cited from earlier work

T5 sequence (P26447 whole entry): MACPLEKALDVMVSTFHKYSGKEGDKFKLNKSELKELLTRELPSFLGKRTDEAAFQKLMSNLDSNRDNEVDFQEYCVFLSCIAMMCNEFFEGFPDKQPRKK
T3 sequence (P15043 408-523): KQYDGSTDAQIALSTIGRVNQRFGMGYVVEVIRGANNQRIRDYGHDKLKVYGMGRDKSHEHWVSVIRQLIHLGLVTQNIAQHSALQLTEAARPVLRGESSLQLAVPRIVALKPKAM
T4 sequence (P09382 whole entry): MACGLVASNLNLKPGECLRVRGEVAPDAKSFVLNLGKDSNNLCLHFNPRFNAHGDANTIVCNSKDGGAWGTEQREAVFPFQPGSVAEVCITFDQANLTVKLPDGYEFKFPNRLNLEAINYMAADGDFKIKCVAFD

Row | Molecule | Kd (CaM [1]) [µM] | Kd (S100B [2]) [µM] | Kd (CaM [3]) [µM] | Kd (RecQ-WH [4]) [µM] | Kd (RecQ-WH [5]) [µM] | Kd (Gal-1 [6]) [µM] | Kd (S100A4 [7]) [µM] | Kd (S100A4 [8]) [µM] | Kd (S100B [9]) [µM] | Kd (Gal-1 [10]) [µM] | Affinity class of probe (high, medium, low) in pull-down (S100A4 [8]) | Affinity class of probe (high, medium, low) in pull-down (S100B [9]) | Kd (S100A4 [11]) [µM] | Kd (S100B [12]) [µM]
1 | CC(C)C[C@@H](CC(=O)N[C@H]1CCCC[C@@H]1C(=O)N[C@H]1CCCC[C@@H]1C(=O)N[C@H](CC(=O)N[C@H]1CCCC[C@@H]1C(N)=O)Cc1c[nH]c2ccccc12)NC(=O)[C@H]1CCCC[C@@H]1N [H14 LW] | 0.4 | 67 | 88 | 315 | 195 | 65 | 244 | 8 | 21 | 38 | – | – | – | –
2 | CC[C@H](C)[C@@H](CC(=O)N[C@H]1CCCC[C@@H]1C(N)=O)NC(=O)[C@H]1CCCC[C@@H]1NC(=O)[C@H]1CCCC[C@@H]1NC(=O)C[C@H](Cc1c[nH]c2ccccc12)NC(=O)[C@H]1CCCC[C@@H]1N [H14 WI] | 1 | 123 | 55 | 142 | 68 | 105 | 255 | 10 | 12 | 71 | – | – | – | –
3 | CC(C)C[C@@H](CC(=O)N[C@H]1CCCC[C@@H]1C(N)=O)NC(=O)[C@H]1CCCC[C@@H]1NC(=O)[C@H]1CCCC[C@@H]1NC(=O)C[C@H](Cc1c[nH]c2ccccc12)NC(=O)[C@H]1CCCC[C@@H]1N [H14 WL] | 1 | 123 | 55 | 142 | 68 | 105 | 255 | 10 | 12 | 71 | high | high | – | –
4 | NC(=O)[C@H]1CCCC[C@@H]1NC(=O)C[C@H](Cc1c[nH]c2ccccc12)NC(=O)[C@H]1CCCC[C@@H]1NC(=O)[C@H]1CCCC[C@@H]1NC(=O)C[C@H](Cc1c[nH]c2ccccc12)NC(=O)[C@H]1CCCC[C@@H]1N [H14 WW] | 1.2 | 138 | 35 | 84 | 40 | 51 | 462 | 23 | 19 | 30 | medium | high | – | –
5 | NC(=O)[C@H]1CCCC[C@@H]1NC(=O)C[C@H](Cc1ccc(O)cc1)NC(=O)[C@H]1CCCC[C@@H]1NC(=O)[C@H]1CCCC[C@@H]1NC(=O)C[C@H](Cc1c[nH]c2ccccc12)NC(=O)[C@H]1CCCC[C@@H]1N [H14 WY] | 2 | 104 | 119 | 193 | 50 | 222 | 367 | 35 | 66 | 145 | – | – | – | –
6 | NC(=O)[C@H]1CCCC[C@@H]1NC(=O)C[C@H](Cc1c[nH]c2ccccc12)NC(=O)[C@H]1CCCC[C@@H]1NC(=O)[C@H]1CCCC[C@@H]1NC(=O)C[C@H](Cc1ccc(O)cc1)NC(=O)[C@H]1CCCC[C@@H]1N [H14 YW] | 2 | 38 | 404 | 164 | 46 | 112 | 391 | 25 | 42 | 115 | – | – | – | –
7 | NMIIA (1893–1923): peptide motif of non-muscle myosin IIA, native ligand competitor for S100A4 | – | – | – | – | – | – | – | – | – | – | – | – | 0.007 ± 0.001 | –
8 | RSK1 (689–735): peptide motif of ribosomal S6 kinase 1, native ligand competitor for S100B (QDLQLVKGAMAATYSALNSSKPTPQLKPIESSILAQRRVRKLPSTTL; UniProt Q15418 689-735, looked up, fragment) | – | – | – | – | – | – | – | – | – | – | – | – | – | 1.8
